Results as given in US20040121304A1, “Method for screening for progesterone receptor isoform-specific ligands and for tissue-selective progesterone receptor ligands” (priority 2004, published 2004).

Key:
[1] = target: T1, hPR-A (progesterone receptor isoform A) (Homo sapiens, UniProt P06401); assay: Transactivation assay, SK-N-MC cells stably transfected with hPR-A and MTV-LUC reporter; type: cell-based; conditions: for Emax / antagonism efficacy (PR-A): SK-N-MC hPR-A/MTV-LUC cells, 24 h incubation; for Emax: LUC activity relative to R5020 10^-7 mol/l = 100%, 1% ethanol = 0%, read-out: Agonism efficacy (PR-A); for antagonism efficacy (PR-A): inhibition of LUC induction by 10^-10 mol/l R5020
T1 construct: expressed in transfected cells; host or cells: SK-N-MC (human neuroblastoma) cells, stably transfected with phPR-2 (PR-A plasmid) plus pRSV-neo and pMTV-LUC
T1 sequence (P06401 1-769 isoform P06401-2): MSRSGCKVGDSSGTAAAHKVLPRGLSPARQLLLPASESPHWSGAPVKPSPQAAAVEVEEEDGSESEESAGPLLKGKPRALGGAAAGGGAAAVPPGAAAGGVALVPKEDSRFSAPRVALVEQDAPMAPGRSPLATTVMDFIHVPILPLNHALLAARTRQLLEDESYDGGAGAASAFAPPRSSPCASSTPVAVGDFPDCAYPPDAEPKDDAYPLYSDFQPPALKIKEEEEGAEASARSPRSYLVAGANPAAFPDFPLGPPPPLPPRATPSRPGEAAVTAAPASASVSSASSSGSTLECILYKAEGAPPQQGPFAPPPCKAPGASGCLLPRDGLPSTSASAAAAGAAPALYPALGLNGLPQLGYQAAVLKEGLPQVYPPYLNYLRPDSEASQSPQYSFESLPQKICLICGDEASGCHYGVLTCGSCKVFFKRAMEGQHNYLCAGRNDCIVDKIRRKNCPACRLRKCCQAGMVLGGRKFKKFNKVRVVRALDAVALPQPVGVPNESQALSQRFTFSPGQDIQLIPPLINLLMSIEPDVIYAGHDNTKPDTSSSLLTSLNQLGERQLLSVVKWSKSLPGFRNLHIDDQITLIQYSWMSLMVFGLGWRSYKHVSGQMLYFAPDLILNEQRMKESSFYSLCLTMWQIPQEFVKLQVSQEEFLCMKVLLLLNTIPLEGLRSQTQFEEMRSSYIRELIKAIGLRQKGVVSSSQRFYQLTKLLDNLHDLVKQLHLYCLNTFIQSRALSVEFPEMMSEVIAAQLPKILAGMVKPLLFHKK
Description: (§1) The method for screening for isoform-specific PR ligands according to the present invention is carried out with first and second SK-N-MC cells stably transfected with a plasmid expressing the hPR-A (first cells) or the hPR-B (second cells) and the LUC reporter gene linked to the hormonally responsive MTV promoter. A detailed description of how the cell lines according to the invention and used in this Example may be obtained is given in Example 5.
(§2) The cells are cultured in Minimum Essential Medium with Earl's Salts (S-MEM, without L-glutamine; Gibco BRL, no. 21090-022), supplemented with 10% fetal calf serum (FCS), penicillin 100U/streptomycin 100 μg/ml (Biochrom, no. A2213), L-glutamine 4 mmol/l (Gibco BRL, no. 25030-024), sodium pyruvate 1 mmol/l (Biochrom, no. L0473) and 1× non-essential amino acids (Biochrom, no. K0293) at a temperature of 37° C. and in an atmosphere of 5% carbon dioxide.
(§3) For the transactivation assay, the cells are seeded onto 96-well dishes (2×10^4 cells/dish) and cultured in a medium as described above, with the exception that the FCS is replaced by a 3% charcoal stripped FCS. 48 hours later, cells are contacted with prediluted test compounds. For determination of agonistic activity, cells are cultured in the presence of increasing concentrations (10^−6 to 10^−11 mol/l) of test compounds. As a positive control for reporter gene induction cells are treated with 10^−6 to 10^−11 mol/l R5020 (promegestone). As a negative control for reporter gene induction, cells are cultured in 1% ethanol. For determination of antagonistic activity, cells are treated with 10^−10 mol/l R5020 and additionally with increasing concentrations (10^−6 to 10^−11 mol/l) of test compounds. As a positive control for inhibition of reporter gene transcription, cells are cultured in increasing concentrations (10^−7 to 10^−12 mol/l) of the antiprogestin mifepristone. As a negative control for inhibition of reporter gene transcription, cells are cultured in 1% ethanol.
(§4) After incubation with test compounds for 24 hours, the medium is removed and cells are lysed with 20 μl of lysis buffer (Luciferase Assay System E 153A; Promega) and under agitation of the plate for 10 min. After addition of 30 μl of luciferase reagent (Luciferase Assay System E 151A+152A; Promega) within 30 seconds per plate, the activity of the luciferase reporter gene product is determined in the cell lysates by means of a Microlite ML 3000 microtiter plate luminometer (Dynatech) in cycle mode.
(§5) Evaluation of the response gives the efficacy [%] for both agonism and antagonism, and evaluation of the EC50 (for agonism) and IC50 (for antagonism) values gives the potency [nM]. Calculation of these values is conducted as follows:
(§6) Calculation of Agonistic Activity:
(§7) The LUC activity [%] for the measured data points is calculated as follows: [formula]
(§8) and CO=0% stimulation (ethanol, 1%).
(§9) Thus, the efficacy [%] is determined according to: [formula]
(§10) The potency [nM], i.e. the EC50, is determined graphically.
(§11) Calculation of Antagonistic Activity:
(§12) wherein CI=0% inhibition (R5020, 10^−10 mol/l) (corresponds to 100% stimulation)
(§13) and CO=100% inhibition (EtOH, 1%) (corresponds to 0% stimulation)
(§14) The potency [nM], i.e. the IC50, is determined graphically.

[2] = target: T2, hPR-B (progesterone receptor isoform B) (Homo sapiens, UniProt P06401); assay: Transactivation assay, SK-N-MC cells stably transfected with hPR-B and MTV-LUC reporter; type: cell-based; conditions: for Emax / antagonism efficacy (PR-B): SK-N-MC hPR-B/MTV-LUC cells, 24 h incubation; for Emax: LUC activity relative to R5020 10^-7 mol/l = 100%, 1% ethanol = 0%, read-out: Agonism efficacy (PR-B); for antagonism efficacy (PR-B): inhibition of LUC induction by 10^-10 mol/l R5020; for Difference of agonism efficacies (PR-B - PR-A): indicating PR-B selectivity
T2 construct: expressed in transfected cells; host or cells: SK-N-MC (human neuroblastoma) cells, stably transfected with pRSVhPR-neo (built from pRC/RSV and hPR-1) and pMTV-LUC
T2 sequence (P06401 1-933): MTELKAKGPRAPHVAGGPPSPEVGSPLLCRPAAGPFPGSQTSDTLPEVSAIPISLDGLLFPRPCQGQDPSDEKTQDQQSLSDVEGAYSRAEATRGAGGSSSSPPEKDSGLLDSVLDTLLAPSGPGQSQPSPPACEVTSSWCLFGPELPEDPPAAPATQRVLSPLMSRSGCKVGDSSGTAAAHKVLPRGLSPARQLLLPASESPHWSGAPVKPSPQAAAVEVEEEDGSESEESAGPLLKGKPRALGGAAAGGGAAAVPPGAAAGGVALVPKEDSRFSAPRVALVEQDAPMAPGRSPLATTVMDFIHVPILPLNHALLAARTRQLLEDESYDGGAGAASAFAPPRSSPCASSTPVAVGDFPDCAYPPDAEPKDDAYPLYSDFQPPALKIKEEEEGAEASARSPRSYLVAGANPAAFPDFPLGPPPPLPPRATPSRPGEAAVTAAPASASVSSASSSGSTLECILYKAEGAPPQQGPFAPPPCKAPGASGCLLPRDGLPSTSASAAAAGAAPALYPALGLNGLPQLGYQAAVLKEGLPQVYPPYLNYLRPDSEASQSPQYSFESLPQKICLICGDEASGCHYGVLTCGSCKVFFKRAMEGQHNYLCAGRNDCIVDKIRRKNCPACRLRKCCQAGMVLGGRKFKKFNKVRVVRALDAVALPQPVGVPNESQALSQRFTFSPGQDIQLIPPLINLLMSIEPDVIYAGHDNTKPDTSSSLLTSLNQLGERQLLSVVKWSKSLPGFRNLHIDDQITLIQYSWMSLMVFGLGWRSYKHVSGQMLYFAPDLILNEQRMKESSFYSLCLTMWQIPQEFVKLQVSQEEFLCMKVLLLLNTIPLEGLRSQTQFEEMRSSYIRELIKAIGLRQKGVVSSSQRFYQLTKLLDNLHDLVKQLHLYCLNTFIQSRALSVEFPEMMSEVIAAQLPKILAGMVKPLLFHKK
Description: as §1, §2, §3, §4, §5, §6, §7, §8, §9, §10, §11, §12, §13, §14

Row | SMILES | Emax [1] [%] | antagonism efficacy (PR-A) [1] | Emax [2] [%] | antagonism efficacy (PR-B) [2] | Difference of agonism efficacies (PR-B - PR-A) [2] [%] | Difference of agonism efficacies (PR-A - PR-B) ([1]; indicating PR-A selectivity) [%] | Difference of antagonism efficacies (PR-A - PR-B) ([1]; indicating PR-A selectivity) [%]
1 | O=C1OCc2cc(NC(=O)C(O)(CC3(c4cccc(Br)c4)CC3)C(F)(F)F)ccc21 (stereo not drawn) [1-(3-bromophenyl)-N-(1,3-dihydro-1-oxo-5-isobenzofuranyl)-α-hydroxy-α-(trifluoromethyl)-cyclopropanepropanamide] | 81 | none | 106 | none | 25 |  | 
2 | CC(CC(O)(CNc1ccc2c(c1)COC2=O)C(F)(F)F)c1ccccc1 (stereo not shown) [5-{[2-hydroxy-4-phenyl-2-(trifluoromethyl)pentyl]amino}-1(3H)-isobenzofiuranone] | 39.9 | none | 56.8 | none | 17 |  | 
3 | C#C[C@]1(O)C=CC2C3CCC4=CC(=O)CC[C@@]45CC=C[C@@H](C[C@@]21C)C35 (stereo partly drawn) [9,11-dihydro-17-hydroxy-(11α,17α)-6′H-benzo[10,9,11]-19-norpregna-4,9(11), 15-trien-20-yn-3-one] | 131 | none | 114 | none |  | 17 | 
4 | C#C[C@]1(O)C=CC2C3CCC4=CC(=O)CC[C@@]45CCC=C(C[C@@]21CC)C35 (stereo partly drawn) [13-ethyl-5α,9-dihydro-17-hydroxy-(17α)-6′H-benzo[10,9,11]-18,19-dinorpregna-4,9(11),15-trien-20-yn-3-one] | 85 | none | 108 | none | 23 |  | 
5 | C=C[C@]1(O)CCC2C3CCC4=CC(=O)CC[C@@]45CC=C[C@@H](C[C@@]21CC)C35 (stereo partly drawn) [13-ethyl-9,11-dihydro-17-hydroxy-(11α,17α)-6′H-benzo[10,9,11]-18,19-dinorpregna-4,9(11),20-trien-3-one] | 132 | none | 108 | none |  | 24 | 
6 | C#C[C@]1(O)CCC2C3CCC4=CC(=O)CC[C@@]45CC=C[C@@H](C[C@@]21CC)C35 (stereo partly drawn) [13-ethyl-9,11-dihydro-17-hydroxy-(11α,17α)-6′H-benzo[10,9,11]-18,19-dinorpregna-4,9(11)-dien-20-yn-3-one] | 129 | none | 108 | none |  | 21 | 
7 | CC(=O)O[C@]1(C(C)=O)CCC2C3C=C(Cl)C4=CC(=O)CC[C@@]45CC[C@@H](C[C@@]21C)C35 (stereo partly drawn) [17-(acetyloxy)-6-chloro-9,11-dihydro-(11α)-cyclopenta[10,9,11]-19-norpregna-4,6,9(11)-triene-3,20-dione] | 29 | 45% | 50 | 30% | 21 |  | 15
8 | CC(=O)O[C@]1(C(C)=O)CCC2C3C[C@H](C)C4=CC(=O)CC[C@@]45CC=C[C@@H](C[C@@]21C)C35 (stereo partly drawn) [17-(acetyloxy)-9,11-dihydro-6-methyl-(6α,11α)-6H′benzo[10,9,11]-19-norpregna-4,9(11)-diene-3,20-dione] | 50 | none | 90 | none | 40 |  | 
9 | CC(=O)O[C@]1(C(C)=O)CC[C@H]2[C@@H]3C=C(C)C4=CC(=O)CC[C@]4(C)[C@H]3CC[C@@]21C [17-acetoxy-6-methyl-4,6-pregnadiene-3,20-dione] | 35 | none | 81 | none | 46 |  | 
